Data reported in ChEMBL document CHEMBL5715942, “A novel histone deacetylase 8 (HDAC8)-specific inhibitor PCI-34051 induces apoptosis in T-cell lymphomas” (Leukemia, 2008).
Blank lines part the entries; values can stand above or below the compound they belong to. Active and inactive are the calls of the source. The rule behind the calls is not given here.

Experiments:
MCF7 [1] = experiment: Anti-proliferative activity against human MCF7 cells assessed as growth inhibition incubated for 72 hrs by alamar blue staining based fluorometric assay; format: functional
HCT-116 [2] = experiment: Anti-proliferative activity against human HCT-116 cells assessed as growth inhibition incubated for 72 hrs by alamar blue staining based fluorometric assay; format: functional
MCF7 [3] = experiment: Induction of apoptosis in human MCF7 cells incubated for 72 hrs by Annexin-V staining based flow cytometry analysis relative to control; format: functional
U-87 MG = experiment: Anti-proliferative activity against human U87 cells assessed as growth inhibition incubated for 72 hrs by alamar blue staining based fluorometric assay; format: functional, U-87MG ATCC
RKO [4] = experiment: Anti-proliferative activity against human RKO cells assessed as growth inhibition incubated for 72 hrs by alamar blue staining based fluorometric assay; format: functional
Ramos = experiment: Anti-proliferative activity against human Ramos cells assessed as growth inhibition incubated for 72 hrs by alamar blue staining based fluorometric assay; format: functional
RKO [5] = experiment: Induction of apoptosis in human RKO cells incubated for 72 hrs by Annexin-V staining based flow cytometry analysis relative to control; format: functional
A549 [6] = experiment: Induction of apoptosis in human A549 cells incubated for 72 hrs by Annexin-V staining based flow cytometry analysis relative to control; format: functional
HCT-116 [7] = experiment: Induction of apoptosis in human HCT-116 cells incubated for 72 hrs by Annexin-V staining based flow cytometry analysis relative to control; format: functional
CCRF-HSB-2 = experiment: Anti-proliferative activity against human CCRF-HSB-2 cells assessed as growth inhibition incubated for 72 hrs by alamar blue staining based fluorometric assay; format: functional
RPMI-8226 = experiment: Anti-proliferative activity against human RPMI-8226 cells assessed as growth inhibition incubated for 72 hrs by alamar blue staining based fluorometric assay; format: functional
OVCAR-3 [8] = experiment: Anti-proliferative activity against human OVCAR-3 cells assessed as growth inhibition incubated for 72 hrs by alamar blue staining based fluorometric assay; format: functional
Raji = experiment: Anti-proliferative activity against human Raji cells assessed as growth inhibition incubated for 72 hrs by alamar blue staining based fluorometric assay; format: functional
A549 [9] = experiment: Anti-proliferative activity against human A549 cells assessed as growth inhibition incubated for 72 hrs by alamar blue staining based fluorometric assay; format: functional
THP-1 = experiment: Anti-proliferative activity against human THP-1 cells assessed as growth inhibition incubated for 72 hrs by alamar blue staining based fluorometric assay; format: functional
K562 = experiment: Anti-proliferative activity against human K562 cells assessed as growth inhibition incubated for 72 hrs by alamar blue staining based fluorometric assay; format: functional
Jurkat [10] = experiment: Cytotoxicity in tubulin in human Jurkat cells assessed as tubulin acetylation at 0.2 uM incubated for 24 hrs by Western blotting analysis; format: functional, cell-based
HeLa = experiment: Anti-proliferative activity against human HeLa cells assessed as growth inhibition incubated for 72 hrs by alamar blue staining based fluorometric assay; format: functional
SUD4 = experiment: Anti-proliferative activity against human SU-DHL-4 cells assessed as growth inhibition incubated for 72 hrs by alamar blue staining based fluorometric assay; format: functional
Jurkat [11] = experiment: Induction of apoptosis in human Jurkat cells assessed as decrease in FL-Bid at 5 uM incubated for 24 hrs by Western blotting analysis
OVCAR-3 [12] = experiment: Induction of apoptosis in human OVCAR-3 cells incubated for 72 hrs by Annexin-V staining based flow cytometry analysis relative to control; format: functional
MOLT-4 = experiment: Anti-proliferative activity against human MOLT-4 cells assessed as growth inhibition incubated for 72 hrs by alamar blue staining based fluorometric assay; format: functional
HuT78 = experiment: Anti-proliferative activity against human HuT78 cells assessed as growth inhibition incubated for 72 hrs by alamar blue staining based fluorometric assay; format: functional
Jurkat [13] = experiment: Anti-proliferative activity against human Jurkat cells assessed as growth inhibition incubated for 72 hrs by alamar blue staining based fluorometric assay; format: functional
Jurkat [14] = experiment: Cytotoxicity in human Jurkat cells assessed as histone acetylation at 0.2 uM incubated for 24 hrs by Western blotting analysis; format: functional, cell-based
DB = experiment: Anti-proliferative activity against human DB cells assessed as growth inhibition incubated for 72 hrs by alamar blue staining based fluorometric assay; format: functional
Jurkat [15] = experiment: Induction of apoptosis in human Jurkat cells assessed as intracellular calcium level at 0.8 uM in presence of Iodo-1 by spectrofluorimetric analysis; format: functional, cell-based

GI50 (MCF7 [1]): 150 nM | GI50 (HCT-116 [2]): 200 nM | GI50 (U-87 MG): 1200 nM | GI50 (Ramos): 130 nM | GI50 (CCRF-HSB-2): 100 nM | GI50 (RPMI-8226): 120 nM | GI50 (OVCAR-3 [8]): 160 nM | GI50 (Raji): 120 nM | GI50 (A549 [9]): 180 nM | GI50 (THP-1): 75 nM | GI50 (K562): 150 nM | GI50 (HeLa): 200 nM | GI50 (MOLT-4): 120 nM | GI50 (Jurkat [13]): 110 nM
Structure (SMILES): CN(C)Cc1c(C(=O)NCCOc2ccc(C(=O)NO)cc2)oc2ccccc12.Cl [ABEXINOSTAT HYDROCHLORIDE]
Activity (MCF7 [3]): 37% | GI50 (RKO [4]): 1500 nM | Activity (RKO [5]): 45% | Activity (A549 [6]): 47% | Activity (HCT-116 [7]): 70% | Activity (Jurkat [10]): Active | GI50 (SUD4): 100 nM | Activity (Jurkat [11]): Active | Activity (OVCAR-3 [12]): 55% | GI50 (HuT78): 110 nM | Activity (Jurkat [14]): Active | GI50 (DB): 150 nM

Structure (SMILES): COc1ccc2c(c1)CC[C@@H]1[C@@H]2CC[C@]2(C)[C@@H](NCCCCCCN3C(=O)CCC3=O)CC[C@@H]12
Activity (Jurkat [15]): inactive
